In the supplement of paper PMC8882468:
± gives the standard deviation of the averaged measurements.

system: HCI-008 (organoid from a HER2-enriched breast cancer xenograft); assay: CTG-3D luminescence at 96 h relative to day-0 seeding control (ratio to day 0); higher = more growth / less cytotoxicity; PDxO 3D drug screen, 96 h, CTG-3D normalised to day-0 seeding control.; conditions: 12.5 pM; days in culture: 228

Compared with `C[C@@H]1COCCN1c1cc(C2([S@](C)(=N)=O)CC2)nc(-c2cc[nH]c3nccc2-3)n1` [ceralasertib], `NC1(C(=O)N[C@@H](CCO)c2ccc(Cl)cc2)CCN(c2nc[nH]c3nccc2-3)CC1` [capivasertib] is lower in “CTG-3D luminescence at 96 h” value: 1.99 ± 0.17 for the first, 1.6 ± 0.04 for the second.

`CCN1CCN(Cc2ccc(Nc3ncc(F)c(-c4cc(F)c5nc(C)n(C(C)C)c5c4)n3)nc2)CC1` [abemaciclib] and `Cc1cc(Nc2ncc(Cl)c(Nc3ccccc3S(=O)(=O)C(C)C)n2)c(OC(C)C)cc1C1CCNCC1` [ceritinib] are within error of each other in “CTG-3D luminescence at 96 h” value: 1.42 ± 0.18 for the first, 1.69 ± 0.45 for the second.

`CC(C)n1nc(-c2ccc3oc(N)nc3c2)c2c(N)ncnc21` [sapanisertib] and `NC(=O)c1cccc2cn(-c3ccc([C@@H]4CCCNC4)cc3)nc12` [niraparib] are within error of each other in “CTG-3D luminescence at 96 h” value: 1.63 ± 0.39 for the first, 1.87 ± 0.39 for the second.

`O=C(c1ccc(F)c(F)c1Nc1ccc(I)cc1F)N1CC(O)([C@@H]2CCCCN2)C1` [cobimetinib] and `CS(=O)(=O)c1ccc(C(=O)Nc2ccc(Cl)c(-c3ccccn3)c2)c(Cl)c1` [vismodegib] are within error of each other in “CTG-3D luminescence at 96 h” value: 1.65 ± 0.23 for the first, 1.56 ± 0.085 for the second.

`C[C@H](NC(=O)CCC(F)(F)F)C(=O)N[C@@H]1C(=O)N(CCO)c2ncccc2-c2ccccc21` [crenigacestat] was tested, and the “CTG-3D luminescence at 96 h” value was 1.8 ± 0.26.

same assay, conditions: 12.5 pM; days in culture: 244

Going from `C[C@@H]1COCCN1c1cc(C2([S@](C)(=N)=O)CC2)nc(-c2cc[nH]c3nccc2-3)n1` [ceralasertib] to `NC1(C(=O)N[C@@H](CCO)c2ccc(Cl)cc2)CCN(c2nc[nH]c3nccc2-3)CC1` [capivasertib], the “CTG-3D luminescence at 96 h” value rises from 1.32 to 1.6.

First: CCN1CCN(Cc2ccc(Nc3ncc(F)c(-c4cc(F)c5nc(C)n(C(C)C)c5c4)n3)nc2)CC1 [abemaciclib]
Second: Cc1cc(Nc2ncc(Cl)c(Nc3ccccc3S(=O)(=O)C(C)C)n2)c(OC(C)C)cc1C1CCNCC1 [ceritinib]
The “CTG-3D luminescence at 96 h” value of the first is higher: 1.57 for the first, 1.42 for the second.

Going from `CC(C)n1nc(-c2ccc3oc(N)nc3c2)c2c(N)ncnc21` [sapanisertib] to `NC(=O)c1cccc2cn(-c3ccc([C@@H]4CCCNC4)cc3)nc12` [niraparib], the “CTG-3D luminescence at 96 h” value rises from 1.15 to 1.42.

First: O=C(c1ccc(F)c(F)c1Nc1ccc(I)cc1F)N1CC(O)([C@@H]2CCCCN2)C1 [cobimetinib]
Second: CS(=O)(=O)c1ccc(C(=O)Nc2ccc(Cl)c(-c3ccccn3)c2)c(Cl)c1 [vismodegib]
The “CTG-3D luminescence at 96 h” value of the first is lower: 1.27 for the first, 1.7 for the second.

In the case of `C[C@H](NC(=O)CCC(F)(F)F)C(=O)N[C@@H]1C(=O)N(CCO)c2ncccc2-c2ccccc21` [crenigacestat], the “CTG-3D luminescence at 96 h” value is reported as 1.23.

same assay, conditions: 0.00025 µM; days in culture: 228

`C[C@@H]1COCCN1c1cc(C2([S@](C)(=N)=O)CC2)nc(-c2cc[nH]c3nccc2-3)n1` [ceralasertib] and `NC1(C(=O)N[C@@H](CCO)c2ccc(Cl)cc2)CCN(c2nc[nH]c3nccc2-3)CC1` [capivasertib] are within error of each other in “CTG-3D luminescence at 96 h” value: 1.95 ± 0.15 for the first, 2.11 ± 0.38 for the second.

`CCN1CCN(Cc2ccc(Nc3ncc(F)c(-c4cc(F)c5nc(C)n(C(C)C)c5c4)n3)nc2)CC1` [abemaciclib] and `Cc1cc(Nc2ncc(Cl)c(Nc3ccccc3S(=O)(=O)C(C)C)n2)c(OC(C)C)cc1C1CCNCC1` [ceritinib] are within error of each other in “CTG-3D luminescence at 96 h” value: 1.63 ± 0.16 for the first, 1.81 ± 0.11 for the second.

`CC(C)n1nc(-c2ccc3oc(N)nc3c2)c2c(N)ncnc21` [sapanisertib] and `NC(=O)c1cccc2cn(-c3ccc([C@@H]4CCCNC4)cc3)nc12` [niraparib] are within error of each other in “CTG-3D luminescence at 96 h” value: 1.78 ± 0.018 for the first, 1.97 ± 0.27 for the second.

`O=C(c1ccc(F)c(F)c1Nc1ccc(I)cc1F)N1CC(O)([C@@H]2CCCCN2)C1` [cobimetinib] and `CS(=O)(=O)c1ccc(C(=O)Nc2ccc(Cl)c(-c3ccccn3)c2)c(Cl)c1` [vismodegib] are within error of each other in “CTG-3D luminescence at 96 h” value: 1.7 ± 0.1 for the first, 1.74 ± 0.018 for the second.

For `C[C@H](NC(=O)CCC(F)(F)F)C(=O)N[C@@H]1C(=O)N(CCO)c2ncccc2-c2ccccc21` [crenigacestat], the “CTG-3D luminescence at 96 h” value was 1.66 ± 0.04.

same assay, conditions: 0.00025 µM; days in culture: 244

Going from `C[C@@H]1COCCN1c1cc(C2([S@](C)(=N)=O)CC2)nc(-c2cc[nH]c3nccc2-3)n1` [ceralasertib] to `NC1(C(=O)N[C@@H](CCO)c2ccc(Cl)cc2)CCN(c2nc[nH]c3nccc2-3)CC1` [capivasertib], the “CTG-3D luminescence at 96 h” value falls from 2.13 to 1.98.

First: CCN1CCN(Cc2ccc(Nc3ncc(F)c(-c4cc(F)c5nc(C)n(C(C)C)c5c4)n3)nc2)CC1 [abemaciclib]
Second: Cc1cc(Nc2ncc(Cl)c(Nc3ccccc3S(=O)(=O)C(C)C)n2)c(OC(C)C)cc1C1CCNCC1 [ceritinib]
The “CTG-3D luminescence at 96 h” value of the first is higher: 2.05 for the first, 1.74 for the second.

Compared with `CC(C)n1nc(-c2ccc3oc(N)nc3c2)c2c(N)ncnc21` [sapanisertib], `NC(=O)c1cccc2cn(-c3ccc([C@@H]4CCCNC4)cc3)nc12` [niraparib] is higher in “CTG-3D luminescence at 96 h” value: 1.75 for the first, 1.98 for the second.

First: O=C(c1ccc(F)c(F)c1Nc1ccc(I)cc1F)N1CC(O)([C@@H]2CCCCN2)C1 [cobimetinib]
Second: CS(=O)(=O)c1ccc(C(=O)Nc2ccc(Cl)c(-c3ccccn3)c2)c(Cl)c1 [vismodegib]
The “CTG-3D luminescence at 96 h” value of the first is lower: 1.9 for the first, 2.21 for the second.

With `C[C@H](NC(=O)CCC(F)(F)F)C(=O)N[C@@H]1C(=O)N(CCO)c2ncccc2-c2ccccc21` [crenigacestat] the “CTG-3D luminescence at 96 h” value was 1.65.

same assay, conditions: 0.005 µM; days in culture: 228

`C[C@@H]1COCCN1c1cc(C2([S@](C)(=N)=O)CC2)nc(-c2cc[nH]c3nccc2-3)n1` [ceralasertib] and `NC1(C(=O)N[C@@H](CCO)c2ccc(Cl)cc2)CCN(c2nc[nH]c3nccc2-3)CC1` [capivasertib] are within error of each other in “CTG-3D luminescence at 96 h” value: 1.41 ± 0.34 for the first, 1.54 ± 0.2 for the second.

`CCN1CCN(Cc2ccc(Nc3ncc(F)c(-c4cc(F)c5nc(C)n(C(C)C)c5c4)n3)nc2)CC1` [abemaciclib] and `Cc1cc(Nc2ncc(Cl)c(Nc3ccccc3S(=O)(=O)C(C)C)n2)c(OC(C)C)cc1C1CCNCC1` [ceritinib] are within error of each other in “CTG-3D luminescence at 96 h” value: 1.38 ± 0.49 for the first, 1.55 ± 0.49 for the second.

Compared with `CC(C)n1nc(-c2ccc3oc(N)nc3c2)c2c(N)ncnc21` [sapanisertib], `NC(=O)c1cccc2cn(-c3ccc([C@@H]4CCCNC4)cc3)nc12` [niraparib] is higher in “CTG-3D luminescence at 96 h” value: 0.85 ± 0.15 for the first, 1.45 ± 0.19 for the second.

`O=C(c1ccc(F)c(F)c1Nc1ccc(I)cc1F)N1CC(O)([C@@H]2CCCCN2)C1` [cobimetinib] and `CS(=O)(=O)c1ccc(C(=O)Nc2ccc(Cl)c(-c3ccccn3)c2)c(Cl)c1` [vismodegib] are within error of each other in “CTG-3D luminescence at 96 h” value: 1.33 ± 0.13 for the first, 1.17 ± 0.15 for the second.

In the case of `C[C@H](NC(=O)CCC(F)(F)F)C(=O)N[C@@H]1C(=O)N(CCO)c2ncccc2-c2ccccc21` [crenigacestat], the “CTG-3D luminescence at 96 h” value is reported as 1.56 ± 0.66.

same assay, conditions: 0.005 µM; days in culture: 244

Going from `C[C@@H]1COCCN1c1cc(C2([S@](C)(=N)=O)CC2)nc(-c2cc[nH]c3nccc2-3)n1` [ceralasertib] to `NC1(C(=O)N[C@@H](CCO)c2ccc(Cl)cc2)CCN(c2nc[nH]c3nccc2-3)CC1` [capivasertib], the “CTG-3D luminescence at 96 h” value falls from 2.05 to 1.87.

First: CCN1CCN(Cc2ccc(Nc3ncc(F)c(-c4cc(F)c5nc(C)n(C(C)C)c5c4)n3)nc2)CC1 [abemaciclib]
Second: Cc1cc(Nc2ncc(Cl)c(Nc3ccccc3S(=O)(=O)C(C)C)n2)c(OC(C)C)cc1C1CCNCC1 [ceritinib]
The “CTG-3D luminescence at 96 h” value of the first is higher: 1.87 for the first, 1.85 for the second.

First: CC(C)n1nc(-c2ccc3oc(N)nc3c2)c2c(N)ncnc21 [sapanisertib]
Second: NC(=O)c1cccc2cn(-c3ccc([C@@H]4CCCNC4)cc3)nc12 [niraparib]
The “CTG-3D luminescence at 96 h” value of the first is lower: 1.82 for the first, 1.91 for the second.

First: O=C(c1ccc(F)c(F)c1Nc1ccc(I)cc1F)N1CC(O)([C@@H]2CCCCN2)C1 [cobimetinib]
Second: CS(=O)(=O)c1ccc(C(=O)Nc2ccc(Cl)c(-c3ccccn3)c2)c(Cl)c1 [vismodegib]
The “CTG-3D luminescence at 96 h” value of the first is lower: 1.87 for the first, 1.95 for the second.

`C[C@H](NC(=O)CCC(F)(F)F)C(=O)N[C@@H]1C(=O)N(CCO)c2ncccc2-c2ccccc21` [crenigacestat] was tested, and the “CTG-3D luminescence at 96 h” value was 1.55.

same assay, conditions: 0.1 µM; days in culture: 228

First: C[C@@H]1COCCN1c1cc(C2([S@](C)(=N)=O)CC2)nc(-c2cc[nH]c3nccc2-3)n1 [ceralasertib]
Second: NC1(C(=O)N[C@@H](CCO)c2ccc(Cl)cc2)CCN(c2nc[nH]c3nccc2-3)CC1 [capivasertib]
The “CTG-3D luminescence at 96 h” value of the first is higher: 1.81 ± 0.3 for the first, 0.955 ± 0.35 for the second.

`CCN1CCN(Cc2ccc(Nc3ncc(F)c(-c4cc(F)c5nc(C)n(C(C)C)c5c4)n3)nc2)CC1` [abemaciclib] and `Cc1cc(Nc2ncc(Cl)c(Nc3ccccc3S(=O)(=O)C(C)C)n2)c(OC(C)C)cc1C1CCNCC1` [ceritinib] are within error of each other in “CTG-3D luminescence at 96 h” value: 1.89 ± 0.48 for the first, 1.3 ± 0.59 for the second.

Going from `CC(C)n1nc(-c2ccc3oc(N)nc3c2)c2c(N)ncnc21` [sapanisertib] to `NC(=O)c1cccc2cn(-c3ccc([C@@H]4CCCNC4)cc3)nc12` [niraparib], the “CTG-3D luminescence at 96 h” value rises from 0.502 ± 0.18 to 1.55 ± 0.031.

First: O=C(c1ccc(F)c(F)c1Nc1ccc(I)cc1F)N1CC(O)([C@@H]2CCCCN2)C1 [cobimetinib]
Second: CS(=O)(=O)c1ccc(C(=O)Nc2ccc(Cl)c(-c3ccccn3)c2)c(Cl)c1 [vismodegib]
The “CTG-3D luminescence at 96 h” value of the first is lower: 1.14 ± 0.47 for the first, 1.72 ± 0.088 for the second.

With `C[C@H](NC(=O)CCC(F)(F)F)C(=O)N[C@@H]1C(=O)N(CCO)c2ncccc2-c2ccccc21` [crenigacestat] the “CTG-3D luminescence at 96 h” value was 1.47 ± 0.48.

same assay, conditions: 0.1 µM; days in culture: 244

Going from `C[C@@H]1COCCN1c1cc(C2([S@](C)(=N)=O)CC2)nc(-c2cc[nH]c3nccc2-3)n1` [ceralasertib] to `NC1(C(=O)N[C@@H](CCO)c2ccc(Cl)cc2)CCN(c2nc[nH]c3nccc2-3)CC1` [capivasertib], the “CTG-3D luminescence at 96 h” value falls from 2.01 to 1.34.

First: CCN1CCN(Cc2ccc(Nc3ncc(F)c(-c4cc(F)c5nc(C)n(C(C)C)c5c4)n3)nc2)CC1 [abemaciclib]
Second: Cc1cc(Nc2ncc(Cl)c(Nc3ccccc3S(=O)(=O)C(C)C)n2)c(OC(C)C)cc1C1CCNCC1 [ceritinib]
The “CTG-3D luminescence at 96 h” value of the first is higher: 2.13 for the first, 1.55 for the second.

Going from `CC(C)n1nc(-c2ccc3oc(N)nc3c2)c2c(N)ncnc21` [sapanisertib] to `NC(=O)c1cccc2cn(-c3ccc([C@@H]4CCCNC4)cc3)nc12` [niraparib], the “CTG-3D luminescence at 96 h” value rises from 0.854 to 2.31.

Going from `O=C(c1ccc(F)c(F)c1Nc1ccc(I)cc1F)N1CC(O)([C@@H]2CCCCN2)C1` [cobimetinib] to `CS(=O)(=O)c1ccc(C(=O)Nc2ccc(Cl)c(-c3ccccn3)c2)c(Cl)c1` [vismodegib], the “CTG-3D luminescence at 96 h” value rises from 1.57 to 2.27.

With `C[C@H](NC(=O)CCC(F)(F)F)C(=O)N[C@@H]1C(=O)N(CCO)c2ncccc2-c2ccccc21` [crenigacestat] the “CTG-3D luminescence at 96 h” value was 1.79.
